From patent US11103602B2, “PET imaging of zinc transport” (Mayo Foundation for Medical Education and Research, priority 2013, dated 2021)
Values joined by “and” are separate entries in the source; they are usually repeats but may differ in a detail not shown here. Identical values can stand only once.

Experiments:
[1] = cited from earlier work
[2] = Biodistribution of ^63Zn citrate in normal mice; type: in vivo
Protocol: Uptake may be measured in units of Standardized Uptake Value (SUV)=(uptake/g tissue)/(injected dose/g body mass).
Biodistribution characteristics of ^63Zn citrate were investigated in male B6.SJL mice (n=4) (Jackson Laboratories, Bar Harbor, Me., USA) under the approval of the Mayo Clinic Institutional Animal Care and Use Committee. Animals were administered ^63Zn citrate (˜1.8-3.6 MBq) into a tail vein and euthanized at 60 minutes for biodistribution analysis. Tissues were weighed and counted for radioactivity. Biodistribution data were expressed as Standard Uptake Value (SUV)=(counts/g)tissue/(injected dose counts/wt. of mouse (g)).
Biodistribution data was expressed as mean±sd. Statistical comparison of analytical data between groups of runs was performed using the two-tailed Student's T-test. Statistical comparison of intracerebral regional uptake of ^63Zn was performed using ANOVA. P-values <0.05 were considered statistically significant.

[3] = Biodistribution of ^63Zn citrate in normal mice; type: in vivo; remark: listed apart in the source
[4] = Pharmacokinetics of ^63Zn Citrate in cerebral cortical region of interest; type: in vivo, human; conditions: for Vascular clearance phase in cerebral cortical region of interest: post-injection
[5] = Pharmacokinetics of ^63Zn Citrate in blood and plasma of an Alzheimer's disease patient; type: in vivo, human
Protocol: Venous blood samples were taken in heparinized tubes after injection of radiotracer. The samples were centrifuged, and plasma separated. The curves show a rapid clearance of ^63Zn from the blood that is completed by 90 minutes. After this time, the concentrations of ^63Zn in both plasma and whole blood are relatively constant. The concentration of ^63Zn in whole-blood rises relative to plasma to reach equilibrium at around 90 minutes post-injection.

[6] = PET images of ^63Zn Citrate in human subjects; type: in vivo
From the text: High uptake is seen in liver, pancreas, spleen, intestines, and thyroid.

[7] = brain at 30 minutes; vs Be, Sc, V, Cr, Mn, Fe, Co, As, Se, Rb, Sr, Y, Zr, Tc, Ru; cited from earlier work
[8] = mean of normal mice, 1 hour after IV
[9] = individual normal (Wild) mice 1-5, 1 hour after IV
[10] = individual normal (Wild) mice 3-5, 1 hour after IV
[11] = mean of normal mice, 1 hour after IV, listed as 63Zn
[12] = mean of normal mice, 1 hour after IV, listed as 63Zn Citrate
[13] = subject with Alzheimer's disease

CN(C)Cc1ccc2c(Cl)cc(Cl)c(O)c2n1 [PBT2]
Levels of AβO and p-Tau in the cerebrospinal fluid (CSF) ([1]; AD patients treated for a 12-week period): significantly decreased | Cognitive test scores ([1]; AD patients, 12-week period, highest dose level (250 mg daily)): significant improvement

O=C([O-])CC(O)(CC(=O)[O-])C(=O)[O-].O=C([O-])CC(O)(CC(=O)[O-])C(=O)[O-].[63Zn+2].[63Zn+2].[63Zn+2] [^63Zn citrate]
SUV, Kidney, Average [2, 8]: 4.2±1.3 SUV and 4.21 ± 1.30 SUV | Differences in SUVs between intracerebral regions (ANOVA) ([2]; normal mice, 1 hour): did not show statistically significant differences | Uptake in pancreas, liver, kidneys, upper intestines, prostate and seminal vesicles (in words) ([2]; normal mice, 1 hour after IV): high uptake | Uptake in brain regions (regional SUVs) ([2]; normal mice, 1 hour after IV, span over brain regions): 0.2-0.5 SUV | Murine brain uptake (in words) ([2]; normal mice, 60 minutes): moderately low, but significant | Brain penetration (in words) ([3]; five normal male mice, IV, 1 hour): brain penetrant | SUV, Bladder [3, 9]: 1.27 SUV and 3.66 SUV and 1.13 SUV and 0.73 SUV and 0.18 SUV | SUV, Blood [3, 9]: 0.47 SUV and 0.36 SUV and 0.94 SUV and 0.69 SUV and 0.38 SUV | SUV, Bone [3, 9]: 0.72 SUV and 0.5 SUV and 1.11 SUV (2×) and 0.38 SUV | SUV, Brain Stem [3, 9]: 0.25 SUV (2×) and 0.34 SUV and 0.32 SUV and 0.11 SUV | SUV, Caudate Nuclei [3, 9]: 0.34 SUV and 0.23 SUV and 0.57 SUV and 0.63 SUV and 0.09 SUV | SUV, Cerebellum [3, 9]: 0.27 SUV (2×) and 0.38 SUV and 0.49 SUV and 0.13 SUV | SUV, Cortex [3, 9]: 0.2 SUV (2×) and 0.19 SUV and 0.27 SUV and 0.09 SUV | SUV, Heart [3, 9]: 1.11 SUV (2×) and 1.47 SUV and 1.1 SUV and 0.82 SUV | SUV, Hippocampus [3, 9]: 0.28 SUV and 0.24 SUV and 0.88 SUV and 0.87 SUV and 0.12 SUV | SUV, Kidney [3, 9]: 3.8 SUV and 4.32 SUV and 6.01 SUV and 4.49 SUV and 2.42 SUV | SUV, Liver [3, 9]: 6.18 SUV and 5.27 SUV and 8.72 SUV and 6.29 SUV and 3.4 SUV | SUV, Lung [3, 9]: 2.67 SUV and 1.8 SUV and 2.54 SUV and 2.19 SUV and 1.13 SUV | SUV, Muscle [3, 9]: 0.2 SUV and 0.19 SUV and 0.31 SUV and 0.26 SUV and 0.1 SUV | SUV, Pancreas [3, 9]: 10.67 SUV and 5.25 SUV and 11.95 SUV and 10.68 SUV and 5.33 SUV | SUV, Spleen [3, 9]: 2.37 SUV and 1.8 SUV and 3.71 SUV and 2.62 SUV and 0.97 SUV | SUV, Thalamus [3, 9]: 0.29 SUV and 0.25 SUV and 0.38 SUV and 0.28 SUV and 0.11 SUV | SUV, Upper Intestine [3, 9]: 3.02 SUV and 2.99 SUV and 7.66 SUV and 6.46 SUV and 3.47 SUV | SUV, Whole Brain [3, 9]: 0.25 SUV and 0.23 SUV and 0.35 SUV and 0.3 SUV and 0.1 SUV | SUV, Prostate [3, 10]: 0.47 SUV and 0.85 SUV and 0.44 SUV | SUV, Seminal Vesicle [3, 10]: 1.397 SUV and 2.588 SUV and 1.09 SUV | SUV, Bladder, Average [3, 8]: 1.39 SUV | SUV, Blood, Average [3, 8]: 0.57 ± 0.25 SUV | SUV, Bone, Average [3, 8]: 0.76 ± 0.34 SUV | SUV, Brain Stem, Average [3, 8]: 0.25 ± 0.09 SUV | SUV, Caudate Nuclei, Average [3, 8]: 0.37 ± 0.23 SUV | SUV, Cerebellum, Average [3, 8]: 0.31 ± 0.14 SUV | SUV, Cortex, Average [3, 8]: 0.19 ± 0.07 SUV | SUV, Heart, Average [3, 8]: 1.12 ± 0.23 SUV | SUV, Hippocampus, Average [3, 8]: 0.48 ± 0.37 SUV | SUV, Liver, Average [3, 8]: 6.0±1.9 SUV and 5.97 ± 1.92 SUV | SUV, Lung, Average [3, 8]: 2.06 ± 0.62 SUV | SUV, Muscle, Average [3, 8]: 0.21 ± 0.08 SUV | SUV, Pancreas, Average [3, 8]: 8.8±3.2 SUV and 8.78 ± 3.22 SUV | SUV, Prostate, Average [3, 8]: 0.58 ± 0.23 SUV | SUV, Seminal Vesicle, Average [3, 8]: 1.69 ± 0.79 SUV | SUV, Spleen, Average [3, 8]: 2.30 ± 1.01 SUV | SUV, Thalamus, Average [3, 8]: 0.26 ± 0.10 SUV | SUV, Upper Intestine, Average [3, 8]: 4.7±2.1 SUV and 4.72 ± 2.18 SUV | SUV, Whole Brain, Average [3, 8]: 0.24 ± 0.09 SUV | SUV, Pancreas, Average [3, 11]: 8.8±3.2 SUV | SUV, Whole Brain, Average [3, 11]: 0.24±0.09 SUV | SUV, Blood, Average [3, 12]: 0.57 SUV | SUV, Bone, Average [3, 12]: 0.76 SUV | SUV, Brain Stem, Average [3, 12]: 0.25 SUV | SUV, Caudate Nuclei, Average [3, 12]: 0.37 SUV | SUV, Cerebellum, Average [3, 12]: 0.31 SUV | SUV, Cortex, Average [3, 12]: 0.19 SUV | SUV, Heart, Average [3, 12]: 1.12 SUV | SUV, Hippocampus, Average [3, 12]: 0.48 SUV | SUV, Kidney, Average [3, 12]: 4.21 SUV | SUV, Liver, Average [3, 12]: 5.97 SUV | SUV, Lung, Average [3, 12]: 2.06 SUV | SUV, Muscle, Average [3, 12]: 0.21 SUV | SUV, Pancreas, Average [3, 12]: 8.78 SUV | SUV, Prostate, Average [3, 12]: 0.58 SUV | SUV, Seminal Vesicle, Average [3, 12]: 1.69 SUV | SUV, Spleen, Average [3, 12]: 2.3 SUV | SUV, Thalamus, Average [3, 12]: 0.26 SUV | SUV, Upper Intestine, Average [3, 12]: 4.72 SUV | SUV, Whole Brain, Average [3, 12]: 0.24 SUV | Clearance from the cortical brain region between 50 minutes and 90 minutes ([4]; healthy elderly subject): little clearance | Vascular clearance phase in cerebral cortical region of interest ([4]; healthy elderly subject): rapid vascular clearance phase in the first minute | Clearance from the cortical brain region between 50 minutes and 90 minutes [4, 13]: little clearance | Vascular clearance phase in cerebral cortical region of interest [4, 13]: rapid vascular clearance phase in the first minute | Time at which whole-blood concentration relative to plasma reaches equilibrium ([5]; post-injection): around 90 minutes | Time by which clearance from the blood is completed ([5]; venous blood samples after injection): ≤ 90 min | Uptake in cerebral cortex, prostate, pituitary gland, and salivary glands (PET) ([6]; Alzheimer's disease subject): Moderate to low uptake | Uptake in liver, pancreas, spleen, intestines, and thyroid (PET) ([6]; Alzheimer's disease subject): High uptake | Uptake in cerebral cortex, pituitary gland, and salivary glands (PET) ([6]; healthy elderly human subject): Moderate to low uptake | Uptake in liver, pancreas, spleen, intestines, and thyroid (PET) ([6]; healthy elderly human subject): High uptake

[65Zn] [^65Zn]
Zinc uptake in brain relative to the other metal ions measured [7]: several fold higher
